Columns and labels:
FGFR-1 = FGFR-1 (Homo sapiens, UniProt P11362); assay: Inhibition of FGFR-1; assay type: biochemical
human GEO colon tumor = assay: Tumor growth in GEO colon cancer model (caliper measurement); assay type: in vivo, nude mice; details: compared to bevacizumab
Method: (§1) Tumors were propagated in nude mice as subcutaneous (sc) implants using human GEO colon tumor cell lines. Tumors were maintained in nude mice by serial passage. Treated animals were checked daily for treatment related toxicity/mortality. Each group of animals was weighed before the initiation of treatment (Wt1) and then again following the last treatment dose (Wt2). The difference in body weight (Wt2-Wt1) provided an overt measure of treatment-related toxicity. […] Tumor response was determined by measurement of tumors with a caliper twice a week, until the tumors reached a predetermined target size. Animals that were distributed to various treatment and control groups during the study were eventually sacrificed to obtain tumor and blood samples for genomic and protein analysis (Table 1).

[1] = tested on: human GEO colon tumor xenograft tumor tissues; assay: Transcriptional profiling of GEO xenograft tumors on human U133A arrays (genes in tumor tissues); assay type: in vivo
Method: as §1
(§2) Mouse GEO xenograft tumors, treated and non-treated, were surgically removed at appropriate time points and split into two halves. One half of the tumor was mixed in a vial of 10% formalin to be used for IHC and the other half was mixed in 1.0 ml of RNAlater™ RNA Stabilization Reagent (Ambion, Inc., Austin, Tex.) held at room temperature for 30-minutes then stored at −80° C. Total RNA was extracted from the tumor samples using the RNeasy Kit™ (Qiagen, Valencia Calif.). A least 1 μg total RNA with a 260/280 ratio >1.8 by spectrophotometry (DU640 UV, Beckman Coulter, Fullerton, Calif.) was required for transcriptional profiling. Briefly, the tumor samples were homogenized in a lysis-binding solution supplied by Qiagen. An equal volume of ethanol was mixed into each sample, the mixture was passed through the filter cartridges provided, and the rest of the extraction protocol was followed (Ambion). RNA yield and quality were assessed on a standard 1% agarose gel. […] RNA samples were stored at −80° C.
(§3) Transcriptional profiling was performed on the RNA obtained from the GEO xenograft tumor samples. The Affymetrix GeneChip system (Affymetrix, Santa Clara, Calif.) was used for hybridization and scanning of the human U133A and mouse 430A arrays. Generation of cRNA followed a standard T7 amplification protocol. Total RNA was reverse-transcribed with SuperScript II™ (Gibco, Carlsbad, Calif.) in the presence of T7-(dT)24 primer to generate first strand cDNA. A second-strand cDNA synthesis was performed in the presence of DNA Polymerase I, DNA ligase, and RNase H (Gibco). The resulting double-stranded cDNA was blunt-ended using T4 DNA polymerase. This double-stranded cDNA was then transcribed into cRNA in the presence of biotin-ribonucleotides using the BioArray High Yield RNA transcript labeling kit (Enzo Life Sciences, Farmingdale, N.Y.). The amplified, biotin-labeled cRNA was purified using Qiagen RNeasy™ columns (Qiagen Sciences), quantified and fragmented at 94° C. for 35 minutes in the presence of fragmentation buffer (1×). Fragmented cRNA was hybridized to the Affymetrix U113A and 430A arrays overnight at 42° C. The arrays were then placed in the fluidics stations for staining and washing as recommended by Affymetrix protocols. The chips were scanned and raw intensity values were generated for each probe on the arrays.
(§4) 20 HG-U133A2 chips were normalized by the RMA (Robust Multi-array Analysis) method as described by R. A. Irizarry et al., Nucleic Acids Res., February 15; 31(4):e15 (2003). The same normalization was done for the 20 Mouse430A2 chips.
(§5) Differentially expressed genes were defined as: (i) FDR (false discovery rate) q value less than 0.05 when comparing specific compound treatment at single time point to the control (no treatment) at 0 time point and (ii) fold change bigger than 2 (log2Foldchange>1 or <−1) when compared specific treatment to control.

FGFR-2 = FGFR-2 (Homo sapiens, UniProt P21802); assay: Inhibition of FGFR-2; assay type: biochemical
mouse stromal tissues = assay: Transcriptional profiling of GEO xenograft tumors on mouse 430A arrays (genes in mouse stromal tissues); assay type: in vivo; details: for ESM1 level: after 2 hours treatment; for expression value of ESM1 in stromal tissue: treatment at 17 Days, in comparison with the control (FIG. 1)
Method: as §1, §2, §3, §4, §5

VEGFR-2 = VEGFR-2 (Homo sapiens, UniProt P35968); assay: Inhibition of VEGFR-2; assay type: biochemical
[2] = tumor xenografts, after 17 days
[3] = xenograft tumor tissues, 17 days (FIG. 4)
[4] = mouse stroma tissue, 17 days time point

Sequence of VEGFR-2 (P35968 20-1356, species assumed): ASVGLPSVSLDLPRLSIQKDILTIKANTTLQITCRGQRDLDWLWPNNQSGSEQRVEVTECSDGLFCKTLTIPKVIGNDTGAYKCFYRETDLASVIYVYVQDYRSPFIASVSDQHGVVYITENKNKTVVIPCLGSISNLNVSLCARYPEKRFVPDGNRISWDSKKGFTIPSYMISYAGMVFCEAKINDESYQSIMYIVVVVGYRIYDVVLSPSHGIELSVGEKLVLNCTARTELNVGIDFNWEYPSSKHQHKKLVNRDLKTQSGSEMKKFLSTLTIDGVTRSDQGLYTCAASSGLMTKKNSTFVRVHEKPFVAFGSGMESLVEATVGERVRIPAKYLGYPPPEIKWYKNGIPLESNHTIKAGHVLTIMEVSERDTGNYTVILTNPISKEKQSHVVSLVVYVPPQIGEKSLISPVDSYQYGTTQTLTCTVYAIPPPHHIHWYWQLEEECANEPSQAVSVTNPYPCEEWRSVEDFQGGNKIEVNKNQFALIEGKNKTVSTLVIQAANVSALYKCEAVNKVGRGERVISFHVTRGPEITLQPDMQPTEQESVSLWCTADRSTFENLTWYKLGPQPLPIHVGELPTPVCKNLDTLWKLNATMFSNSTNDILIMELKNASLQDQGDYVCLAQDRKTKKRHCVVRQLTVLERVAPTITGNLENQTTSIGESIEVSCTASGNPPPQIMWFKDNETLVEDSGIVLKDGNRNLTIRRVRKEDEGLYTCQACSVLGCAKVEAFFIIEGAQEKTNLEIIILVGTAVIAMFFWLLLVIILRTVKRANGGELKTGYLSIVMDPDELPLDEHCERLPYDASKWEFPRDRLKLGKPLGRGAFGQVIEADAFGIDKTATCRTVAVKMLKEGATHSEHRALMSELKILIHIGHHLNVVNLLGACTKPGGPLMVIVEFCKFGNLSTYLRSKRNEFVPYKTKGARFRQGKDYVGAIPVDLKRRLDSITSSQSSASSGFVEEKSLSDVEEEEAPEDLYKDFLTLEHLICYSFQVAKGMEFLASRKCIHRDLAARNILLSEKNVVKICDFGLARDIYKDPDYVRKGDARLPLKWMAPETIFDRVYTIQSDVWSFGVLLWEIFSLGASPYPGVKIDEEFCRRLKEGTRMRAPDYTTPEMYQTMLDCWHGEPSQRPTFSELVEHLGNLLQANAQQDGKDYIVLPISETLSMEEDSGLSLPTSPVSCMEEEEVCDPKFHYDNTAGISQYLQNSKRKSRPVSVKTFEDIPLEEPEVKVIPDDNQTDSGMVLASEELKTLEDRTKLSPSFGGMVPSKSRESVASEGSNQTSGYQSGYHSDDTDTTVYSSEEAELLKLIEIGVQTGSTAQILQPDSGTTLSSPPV
Sequence of FGFR-2 (P21802 22-821, species assumed): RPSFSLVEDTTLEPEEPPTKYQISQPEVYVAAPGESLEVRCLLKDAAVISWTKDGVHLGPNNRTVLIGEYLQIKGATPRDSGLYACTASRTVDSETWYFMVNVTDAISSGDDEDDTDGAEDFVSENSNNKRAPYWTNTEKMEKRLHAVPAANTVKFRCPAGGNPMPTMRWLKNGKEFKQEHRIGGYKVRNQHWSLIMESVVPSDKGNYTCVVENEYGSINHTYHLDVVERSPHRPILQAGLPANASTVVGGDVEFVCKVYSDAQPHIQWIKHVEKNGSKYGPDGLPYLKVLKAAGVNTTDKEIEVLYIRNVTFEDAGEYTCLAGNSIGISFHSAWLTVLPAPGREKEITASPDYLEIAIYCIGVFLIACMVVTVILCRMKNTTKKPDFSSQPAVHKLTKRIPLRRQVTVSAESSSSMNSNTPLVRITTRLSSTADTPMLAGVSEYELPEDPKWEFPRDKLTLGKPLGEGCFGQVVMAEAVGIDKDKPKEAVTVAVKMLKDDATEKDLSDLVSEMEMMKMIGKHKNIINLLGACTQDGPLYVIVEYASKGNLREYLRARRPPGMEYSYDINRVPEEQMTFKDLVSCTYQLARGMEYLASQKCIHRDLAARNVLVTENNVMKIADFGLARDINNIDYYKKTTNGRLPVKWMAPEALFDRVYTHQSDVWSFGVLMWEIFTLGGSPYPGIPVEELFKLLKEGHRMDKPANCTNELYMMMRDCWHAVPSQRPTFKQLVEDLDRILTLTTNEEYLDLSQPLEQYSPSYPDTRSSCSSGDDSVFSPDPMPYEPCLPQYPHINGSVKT
Sequence of FGFR-1 (P11362 22-822, species assumed): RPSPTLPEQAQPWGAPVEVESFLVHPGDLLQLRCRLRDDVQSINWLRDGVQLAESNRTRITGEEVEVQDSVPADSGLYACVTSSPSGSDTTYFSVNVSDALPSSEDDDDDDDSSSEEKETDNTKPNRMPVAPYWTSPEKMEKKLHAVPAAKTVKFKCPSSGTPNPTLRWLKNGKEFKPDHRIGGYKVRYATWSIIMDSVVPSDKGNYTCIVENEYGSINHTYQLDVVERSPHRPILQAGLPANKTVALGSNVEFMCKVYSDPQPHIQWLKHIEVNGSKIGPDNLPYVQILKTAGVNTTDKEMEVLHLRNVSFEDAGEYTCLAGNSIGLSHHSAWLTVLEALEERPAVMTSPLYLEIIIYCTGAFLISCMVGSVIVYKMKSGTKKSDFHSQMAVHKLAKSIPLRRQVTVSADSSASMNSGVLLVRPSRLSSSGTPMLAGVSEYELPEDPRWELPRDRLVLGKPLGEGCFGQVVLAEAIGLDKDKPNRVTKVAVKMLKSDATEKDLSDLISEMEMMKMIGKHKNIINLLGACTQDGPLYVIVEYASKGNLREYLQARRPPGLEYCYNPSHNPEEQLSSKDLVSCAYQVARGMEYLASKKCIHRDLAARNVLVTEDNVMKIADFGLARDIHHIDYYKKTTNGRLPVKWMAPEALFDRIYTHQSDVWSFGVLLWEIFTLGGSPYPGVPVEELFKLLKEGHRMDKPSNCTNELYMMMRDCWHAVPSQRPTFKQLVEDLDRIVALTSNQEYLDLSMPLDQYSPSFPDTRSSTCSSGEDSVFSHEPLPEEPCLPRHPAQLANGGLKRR

In the case of `Cc1cc2c(F)c(Oc3ncnn4cc(OC[C@@H](C)OC(=O)[C@H](C)N)c(C)c34)ccc2[nH]1` [compound 1, [(1R), 2S]-2-Aminopropionic acid 2-[4-(4-fluoro-2-methyl-1H-indol-5-yloxy)-5-methylpyrrolo[2,1-f][1,2,4]triazin-6-yloxy]-1-methylethyl ester], the “inhibition of FGFR-1” value (FGFR-1) is reported as “inhibition”, the “ability to inhibit tumor growth” value (human GEO colon tumor) is reported as “increase affect on the ability to inhibit tumor growth when compared to bevacizumab” and the CEACAM1 expression ([1]; 3 probe sets (206576_s_at, 211889_x_at, 209498_at), treatment at 17 days) is reported as “significant increase”. The “expression level of RAGE, up-regulated” value ([1]; human xenograft tissue, 17 days, FDR q=0.002) was 1.9 fold, the AKAP7 inhibited ([1]; treatment at 17 days, FDR q<0.008 (FIG. 4)) was 3.5 fold and the EMP1 up-regulated ([1]; tumor tissue, 17 Days, significant FDR q values (FIG. 3)) was 3.9 fold. For the same compound, the FGF-8 levels [1, 2] was “elevated”, the FGF-18 levels [1, 2] was “elevated” and the FGF-22 levels [1, 2] was “elevated”. The FGFR-2 levels [1, 2] was “elevated”, the FGF-2 levels ([1]; tumor xenografts, after 17 days, low expression) was “didn't change much” and the “Expression of Collagen 18” value [1, 3] was “up-regulated”. The VEGF expression [1, 3] was “up-regulated”, the VEGFB expression [1, 3] was “up-regulated” and the “inhibition of FGFR-2” value (FGFR-2) was “inhibition”. For the same compound, the ESM1 level (mouse stromal tissues) was “decreasing trend”, the “expression level of S100A8” value (mouse stromal tissues; [4]) was “up-regulated” and the “expression level of S100A9” value (mouse stromal tissues; [4]) was “up-regulated”. The “expression value of ESM1 in stromal tissue” value (mouse stromal tissues) was “significantly decreases”, the CD14 expression (mouse stromal tissues; upon treatment, 17 days) was “elevated” and the “inhibition of VEGFR-2” value (VEGFR-2) was “potent inhibition”.
In the case of “bevacizumab: AVASTIN (bevacizumab), indirectly inhibits the VEGFR-2 signaling pathway by preventing VEGF ligand binding [reference compound]”, the ESM1 level (mouse stromal tissues) is reported as “decreasing trend” and the “expression value of ESM1 in stromal tissue” value (mouse stromal tissues) is reported as “significantly decreases”.

— patent publication US20100035259A1, “BIOMARKERS AND METHODS FOR DETERMINING SENSITIVITY TO VASCULAR ENDOTHELIAL GROWTH FACTOR RECEPTOR-2 MODULATORS” (Bristol-Myers Squibb Company, priority 2007, published 2010)
